Measurements taken from patent US12285437B2 (The Research Foundation for The State University of new York, priority 2019, dated 2025).
Like-named read-outs stand apart in the source and are kept apart here.

Key:
[1] = HPLC assay of Dox release from DMA prodrugs 2/4/6 at different pH values; assay type: physicochemical; conditions: 37° C., pH 7.4, 10 h
Method: The pH-dependence of drug release from Dox-DMA prodrugs as followed in HPLC assays. To test the pH-sensitivity of drug release, solutions of a DMA prodrug were adjusted to have pH values between 6.0 and 7.4. […] The HPLC rans were carried out with pH 8 solvents so that the DMA prodrug would not decompose during the HPLC analysis. Areas under the peaks were integrated to give the percentages.
The pH of the DMA prodrug solution was adjusted to different pH values in the range of pH 7.4-6.0. […] Representative HPLC traces are shown in ESI FIGS. S24-S29 (see these figures and their captions for more detailed information).

ES2 cells = assay: Imaging studies (confocal microscopy); assay type: cell-based, human
Method: Afterwards, the treatment solution was removed; the nuclei of the cells were labeled with staining dye Hoechst 33342; and then images were taken on a scanning confocal microscope.
Imaging studies (confocal microscopy). Approximately 8,000 ES2 cells were seeded on a colIagen-coated glass dish (MatTek Corporation, part No. P35GCOL-0-10-C) and cultured in McCoy's 5A medium with 10% fetal bovine serum and 1% penicillin-streptomycin at 37° C. in the incubator (5% CO2) overnight. […] After treatment solution was removed, the cells were washed 1× with 100 μL of DMEM/F12 pH-specific media. Prior to fluorescence imaging, the nuclei of cells were stained with 1 μg/mL Hoechst 33342 in PBS for 20 min at 37° C. in the incubator. Afterwards, cells stayed in pH-specific DMEM/F12 media during imaging. […] The images in FIGS. 33-36 were processed using LAS X and ImageJ.

[2] = tested on: PC-3 human prostate cancer cells; conditions: FIG. 9B, PC3, […], 10 μM
Method: (§1) pH-dependent anti-proliferation assays with cells. In 96-well plates, ˜3,000 cells were seeded per well then grown for 24-48 hr until 30-40% confluency. […] For serum effect cell plate data shown in FIG. 5I, cell viability was measured using alamar Blue assay (i.e., growth media was replaced with 45 μL of pH 7.4 DMEM/F-12 media without phenol red, 5 μL of alamar Blue reagent (10×) was added; fluorescence at 590 nm was recorded after excitation at 560 nm at 1 hr afterwards).
(§2) The reaction solution was allowed to stand at rt for 1 hr in the dark, during which the pH decreased to ˜9.6. After 1 hr, the reaction solution was split into two 50-μL portions (for pH 7.4 vs. pH 6.2-6.8 cell experiments). The pH of one portion was adjusted to pH 8 (for pH 7.4 cell experiments) or pH 7 (for pH 6.2-6.8 cell experiments). Subsequently, the solution was diluted 30-fold (to 10 μM) with pH 7.4 or pH 6.2-6.8 cell media (final volume 1.5 mL) and then filtered (0.2 micron) before used in cell experiments.

[3] = tested on: SKOV3 human ovarian cancer cells; conditions: FIG. 9A, 10 μM
Method: as §1, §2

[4] = tested on: ES-2 human ovarian cancer cells; assay: pH-dependent anti-proliferation assay (MTS; alamar Blue for FIG. 7I); conditions: for Cell Viability Average (Avg): FIG. 7A, ES-2, 6 hr
Text: pH-dependent anti-proliferation assays with cells.
NaOH to adjust the pH to 9.9.

ES2 ovarian cancer cells = assay: Antiproliferation assays against ES2 cancer cells at different pH values; assay type: cell-based, human
Method: For cell experiments, a pH 8 or pH 10 (directly from DMI to DMA conversion) solution of DMA 2/4/6 was sterilized by filtering through a 0.2-micron membrane. […] At this point, small amounts of 10 (or 25) mM of sterile aq.
Antiproliferation assays against ES2 cancer cells at different pH values. […] Treatment solution volume was 50-100 μL per well, with a set volume per well for all wells in a plate.

[5] = tested on: NIH:OVCAR3 human ovarian cancer cells
Method: as §1, §2

[6] = tested on: MDA-MB-231 human breast cancer cells
Method: as §1, §2

Compound: COc1cccc2c1C(=O)c1c(O)c3c(c(O)c1C2=O)C[C@@](O)(C(=O)CO)C[C@@H]3O[C@H]1C[C@H](N2C(=O)C(C)=C(CCC(=O)O)C2=O)[C@H](O)[C@H](C)O1 [Dox-DMI 1]
- DMI formed [1]: about 13%
- Dox channel signal among the DMI byproducts (ES2 cells; ES2, 8 μM, 1 h): more signals
- Dox fluorescence signals in cells, pH 6.7 vs. 7.7 (ES2 cells; ES2, 1 h, 4 μM Dox or 8 μM prodrug/DMI): higher at pH 6.7 than 7.7

Compound: COc1cccc2c1C(=O)c1c(O)c3c(c(O)c1C2=O)C[C@@](O)(C(=O)CO)C[C@@H]3O[C@H]1C[C@H](N2C(=O)C(C)=C(CCC(=O)NCCSSC[C@H](N)C(=O)O)C2=O)[C@H](O)[C@H](C)O1 [Dox-DMI-Cys 5]
- DMI formed [1]: 26%

Compound: COc1cccc2c1C(=O)c1c(O)c3c(c(O)c1C2=O)C[C@@](O)(C(=O)CO)C[C@@H]3O[C@H]1C[C@H](N2C(=O)C(C)=C(CCC(=O)NCCSSC[C@H](NC(=O)CC[C@H](N)C(=O)O)C(=O)NCC(=O)O)C2=O)[C@H](O)[C@H](C)O1 [Dox-DMI-GSH 7, Doxorubicin Disubstituted Maleimide Glutathione Conjugate]
- Cell Viability Avg ([2]; pH 6.3-6.4): 90%
- Cell Viability Avg ([2]; pH 7.5-7.6): 84%
- Cell Viability Avg ([3]; pH 6.3-6.5): 75%
- Cell Viability Avg ([3]; pH 7.5-7.6): 63%
- toxicity compared to DMA 8 ([4]; ES-2, 6 h (FIG. 7A)): much less toxicity
- Cell Viability Average (Avg) ([4]; 0.5 μM, pH 6.6-6.8): 90%
- Cell Viability Average (Avg) ([4]; 0.5 μM, pH 7.2-7.5): 97%
- Cell Viability Average (Avg) ([4]; 1 μM, pH 6.6-6.8): 79%
- Cell Viability Average (Avg) ([4]; 1 μM, pH 7.2-7.5): 80%

Compound: COc1cccc2c1C(=O)c1c(O)c3c(c(O)c1C2=O)C[C@@](O)(C(=O)CO)C[C@@H]3O[C@H]1C[C@H](N2C(=O)C(C)=C(CCC(=O)N[C@@H](CCC(=O)O)C(=O)O)C2=O)[C@H](O)[C@H](C)O1 [Dox-DMI-Glu 3]
- DMI formed [1]: 26%

Compound: CC1=C(CCC(=O)O)C(=O)OC1=O [anhydride 7, 2-propionic-3-methylmaleic anhydride]
- cytotoxicity of anhydride byproduct of drug release (ES2 ovarian cancer cells; FIG. 29D, ES2, 2, 20 or 200 μM, pH 6.7-6.8 or 7.5-7.6, 2 h): harmless to cells
- cytotoxicity of anhydride byproduct of drug release (ES2 ovarian cancer cells; FIG. 29D, ES2, 2, 20 or 200 μM, pH 6.7-6.8 or 7.5-7.6, 2 h, listed as anhydride byproduct 7): not cytotoxic

Compound: CC1=C(CCC(=O)N[C@@H](CCC(=O)O)C(=O)O)C(=O)OC1=O [byproduct 10, (3-(4-methyl-2,5-dioxo-2,5-dihydrofuran-3-yl)propanoyl)glutamic acid]
- cytotoxicity of anhydride byproduct of drug release (ES2 ovarian cancer cells; FIG. 30D, ES2, 3, 30 or 300 μM, pH 6.5-6.6 or 7.4-7.5, 3 h): not cytotoxic

Compound: CC1=C(CCC(=O)NCCSSC[C@H](N)C(=O)O)C(=O)OC1=O [byproduct 12]
- cytotoxicity of anhydride byproduct of drug release (ES2 ovarian cancer cells; FIG. 31D, ES2, 2, 20 or 200 μM, pH 6.7 or 7.4-7.5, 2 h): did not show any cytotoxicity
- cytotoxicity of anhydride byproduct of drug release (ES2 ovarian cancer cells; FIG. 31D, ES2, 2, 20 or 200 μM, pH 6.7 or 7.4-7.5, 2 h, listed as anhydride 12): no cytotoxic effect
- cytotoxicity of anhydride byproduct of drug release (ES2 ovarian cancer cells; FIG. 31D, ES2, 2, 20 or 200 μM, pH 6.7 or 7.4-7.5, 2 h, listed as anhydride byproduct 12): not cytotoxic

Compound: Doxorubicin Disubstituted Maleamic Acid Glutathione Conjugate [Dox-DMA-GSH 8]
- higher potency than the free drug (3 μM) ([5]; OVCAR3, 2-3 h, 6-8 μM prodrug, pHe 6.3-6.4): 2-3 ×
- pHe at which maximum effects were seen ([5]; OVCAR3, pHe titration (FIG. 7G)): 6.5
- fold more potent at pHe 6.7 (than at pHe 7.4) ([4]; ES-2, 6 h): ~2 fold
- potency of 1 mM of prodrug compared to 0.5 mM of free Dox ([4]; ES-2, 6 h, pHe 6.7): more potent
- pHe at which the maximum effect was reached ([4]; ES-2, pHe titration (FIG. 7E)): 6.8
- higher potency than the free drug (3 μM) ([6]; MDA-MB231, 2-3 h, 6-8 μM prodrug, pHe 6.3-6.4): 2-3 ×
- pHe at which maximum effects were seen ([6]; MDA-MB231, pHe titration (FIG. 7F)): 6.5
